Test results taken from patent publication US20210283139A1, “BIFUNCTIONAL MOLECULES FOR TARGETING UCHL5” (AMPHISTA THERAPEUTICS LTD, priority 2018, published 2021).

What was measured:
Assay type in all cases: cell-based
Brd4 [1] = target: T1, Brd4 (Homo sapiens, UniProt O60885); test: Negative SAR: Brd4 immunoblot in HEK293 cells, active vs negative control; settings: HEK293, 1 μM, 6 h, three independent treatments
T1 construct: endogenous in cells; host or cells: HEK293, HAP1, MV4-11
Protocol: (§1) Immunoblotting. proteins were separated by SDS-PAGE on NuPage 4-12% Bis-Tris gels, followed by transfer to Amersham Protran 0.45 NC nitrocellulose membrane (GE Healthcare) using wet transfer. Membranes were blocked using 5% w/v milk in Tris-buffered saline (TBS) with 0.1% Tween-20. Blots were probed (overnight at 4° C.) using anti-Brd2 (Abcam ab139690, 1:2,000 dilution), anti-Brd3 (Abcam ab50818, 1:500 dilution), and anti-Brd4 (Abcam ab128874, 1:1,000 dilution) primary antibodies, as appropriate. The next day, blots were washed with TBST and incubated (1 hr at RT) with anti-Tubulin hFAB-rhodamine (BioRad, 12004166) primary antibody, and either anti-rabbit IRDye 800CW (Licor 1:10,000 dilution) or anti-mouse IRDye 800CW (Licor 1:10,000 dilution) secondary antibody. Blots were developed using a Bio-Rad ChemiDoc MP Imaging System, and band quantification was performed using Image Studio software (LiCor). Band intensities were normalized to the tubulin loading control and reported as % of the average 0.1% DMSO vehicle intensity. Degradation data was plotted and analysed using Prism (Graphpad, version 8).
HEK293 (1×10^6) cells incubated with DMSO, 1 μM 05IB11 or 1 μM 05IB6 for 6 h with a final DMSO concentration of 0.1% v/v. Cells from three independent treatments (n=3) were lysed with RIPA buffer and immunoblotted for Brd4 and β-tubulin.

Brd4 [2] = target: T1, Brd4; test: Proteasome dependency of Brd4 degradation in HEK293 cells (bortezomib pre-treatment); settings: 6 h
Protocol: as §1
(§2) HEK293 (1×10^6) cells were seeded in standard 6-well plates (2 mL medium) overnight before pre-treatment with 10 μM bortezomib. After a 0.5 h pre-incubation time, cells were subsequently treated with vehicle, 1 μM MZ1 or 1 μM 05IB6, yielding a final overall DMSO concentration of 0.2% v/v. After 6 h incubation, cells were washed with DPBS (Gibco) and lysed using 85 μL RIPA buffer (Sigma-Aldrich) supplemented with cOmplete Mini EDTA-free protease inhibitor cocktail (Roche) and benzonase. Lysates were clarified by centrifugation (20,000 g, 10 min, 4° C.) and the total protein content of the supernatant was quantified using a Bradford colorimetric assay. Samples were prepared using equal amounts of total protein and LDS sample buffer (Invitrogen).

Brd4 [3] = target: T1, Brd4; test: Immunoblot in MV4-11 cells; settings: MV4-11, 6 h, increasing concentrations
Protocol: (§3) MV4-11 (0.7×10^6 cells/mL) were seeded in 10 cm plates (10 mL DMEM supplemented with 10% FBS and L-glutamine) overnight before treatment with compounds at the desired concentration and with a final DMSO concentration of 0.1% v/v. After 6 h incubation time, cells were washed 2× with DPBS (Gibco) and lysed using 85 μL RIPA buffer (Sigma-Aldrich) supplemented with cOmplete Mini EDTA-free protease inhibitor cocktail (Roche) and benzonase. Lysates were clarified by centrifugation (20,000 g, 10 min, 4° C.) and the total protein content of the supernatant was quantified using a Bradford colorimetric assay. Samples were prepared using equal amounts of total protein and LDS sample buffer (Invitrogen). For immunoblot analysis, the following antibodies were used: anti-Brd2 (ab139690, 1:2,000 dilution), anti-Brd3 (ab50818, 1:500 dilution), anti-Brd4 (ab128874, 1:1,000 dilution), anti-c-myc (ab32072, 1:1,000 dilution), anti- total PARP (BD Bioscience #556494; 1:1,000 dilution), anti-cleaved PARP (CST-9541T, 1:1,000 dilution), and anti-Tubulin hFAB-rhodamine (BioRad, 12004166, 1:10,000 dilution).

c-MYC = test: Immunoblot of c-MYC levels in MV4-11 cells; settings: MV4-11, 6 h
Protocol: as §3

Brd2 = Brd2 (Homo sapiens, UniProt P25440); test: Immunoblot in MV4-11 cells; design: endogenous in cells; host or cells: MV4-11; settings: MV4-11, 6 h, increasing concentrations
Brd2, sequence (P25440 whole entry): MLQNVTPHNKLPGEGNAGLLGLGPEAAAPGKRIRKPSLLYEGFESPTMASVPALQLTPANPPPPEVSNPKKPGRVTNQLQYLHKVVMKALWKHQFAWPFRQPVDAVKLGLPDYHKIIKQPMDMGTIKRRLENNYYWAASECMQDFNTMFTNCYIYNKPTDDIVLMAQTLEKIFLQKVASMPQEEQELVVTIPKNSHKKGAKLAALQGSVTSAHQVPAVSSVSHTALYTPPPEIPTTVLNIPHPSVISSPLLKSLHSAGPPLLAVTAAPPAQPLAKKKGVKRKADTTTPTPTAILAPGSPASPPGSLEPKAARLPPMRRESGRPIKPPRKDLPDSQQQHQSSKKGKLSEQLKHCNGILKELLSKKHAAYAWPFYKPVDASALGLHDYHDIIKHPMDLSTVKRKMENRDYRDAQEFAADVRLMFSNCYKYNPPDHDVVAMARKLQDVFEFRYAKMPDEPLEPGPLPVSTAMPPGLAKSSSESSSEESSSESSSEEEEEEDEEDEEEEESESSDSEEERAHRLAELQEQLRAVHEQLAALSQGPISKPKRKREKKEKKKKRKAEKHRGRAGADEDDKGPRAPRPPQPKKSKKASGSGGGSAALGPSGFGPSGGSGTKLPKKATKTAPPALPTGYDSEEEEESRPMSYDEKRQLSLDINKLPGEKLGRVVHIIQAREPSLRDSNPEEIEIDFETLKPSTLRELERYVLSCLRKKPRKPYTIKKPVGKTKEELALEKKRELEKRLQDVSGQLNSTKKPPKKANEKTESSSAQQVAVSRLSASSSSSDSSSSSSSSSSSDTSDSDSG
Protocol: as §3

Brd3 = Brd3 (Homo sapiens, UniProt Q15059); test: Immunoblot in MV4-11 cells; design: endogenous in cells; host or cells: MV4-11; settings: MV4-11, 6 h, increasing concentrations
Brd3, sequence (Q15059 whole entry): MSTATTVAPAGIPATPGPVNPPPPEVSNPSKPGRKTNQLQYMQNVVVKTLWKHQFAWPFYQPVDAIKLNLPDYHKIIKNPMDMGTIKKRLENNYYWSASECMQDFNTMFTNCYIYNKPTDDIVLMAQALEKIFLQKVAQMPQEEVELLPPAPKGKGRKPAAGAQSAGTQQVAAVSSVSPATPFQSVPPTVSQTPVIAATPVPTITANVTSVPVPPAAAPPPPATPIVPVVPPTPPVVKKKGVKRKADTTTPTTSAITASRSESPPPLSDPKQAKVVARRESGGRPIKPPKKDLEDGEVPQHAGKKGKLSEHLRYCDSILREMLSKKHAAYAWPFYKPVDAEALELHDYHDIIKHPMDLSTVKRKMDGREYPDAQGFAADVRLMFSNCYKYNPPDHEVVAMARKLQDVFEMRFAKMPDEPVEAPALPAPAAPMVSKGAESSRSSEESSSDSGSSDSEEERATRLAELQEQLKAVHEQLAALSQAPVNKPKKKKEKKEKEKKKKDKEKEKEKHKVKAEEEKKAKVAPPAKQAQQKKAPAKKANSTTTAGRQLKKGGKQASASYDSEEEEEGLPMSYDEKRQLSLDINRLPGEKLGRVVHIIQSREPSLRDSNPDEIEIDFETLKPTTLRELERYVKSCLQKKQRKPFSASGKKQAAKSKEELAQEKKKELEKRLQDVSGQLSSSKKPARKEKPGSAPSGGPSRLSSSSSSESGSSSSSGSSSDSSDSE
Protocol: as §3

Brd4 [4] = target: T1, Brd4; test: Mechanistic evaluation of Brd4 degradation in HAP1 cells (bortezomib, degrasyn or I-BET726 pre-treatment); settings: 6 h
Protocol: as §1
as §2, with “HAP1 (1×10^6)” for “HEK293 (1×10^6)”, “with inhibitors (10” for “with 10”, “μM bortezomib, 5 μM degrasyn or 1 μM I-BET726).” for “μM bortezomib.”, “vehicle, 0.1” for “vehicle, 1”, “or 0.1” for “or 1”, “μM 05IB9,” for “μM 05IB6,”
Representative blots from HAP1 lysates in FIG. 9 show depletion of Brd4 protein levels following 6 h treatment with 0.1 μM 05IB9 or MZ1, in the presence and absence of 5 μM degrasyn and 10 μM bortezomib. Brd4 band intensities were normalized to β-tubulin loading control and reported in FIG. 9B as % of the average 0.1% DMSO vehicle intensity. Each bar is mean±SEM of three independent experiments performed in duplicate (n=3). […] Furthermore, excess […] competes with 05IB9, resulting in reduced degradation of Brd4.

PARP = test: Immunoblot of total and cleaved PARP in MV4-11 cells; settings: MV4-11, 6 h
Protocol: as §3

| Brd4 levels (Brd4 [1]) | Brd4 degradation in the presence of bortezomib (Brd4 [2]; HEK293, 1 μM compound, 0.5 h pre-treatment with 10 μM bortezomib) | Brd4 protein levels (Brd4 [2]; HEK293, 1 μM) | Brd4 levels (Brd4 [3]) | Brd2 levels (Brd2) | Brd3 levels (Brd3) | Brd4 protein levels (Brd4 [4]; HAP1, 0.1 μM) | SMILES | decrease in c-MYC compared with inhibitor and negative control (c-MYC) | c-MYC levels (c-MYC; increasing concentrations) | Brd4 degradation in the presence of bortezomib or degrasyn (Brd4 [4]; HAP1, 0.1 μM compound, 0.5 h pre-treatment with 10 μM bortezomib or 5 μM degrasyn) | increase in C-PARP compared with inhibitor and negative control (PARP) | cleaved PARP (PARP; increasing concentrations) | total PARP levels (PARP; increasing concentrations) |
| --- | --- | --- | --- | --- | --- | --- | --- | --- | --- | --- | --- | --- | --- |
| significant depletion | completely blocked | depletion | – | – | – | – | CCCC(NC(=O)/C(C#N)=C/c1cccc(Br)n1)c1ccc(OCCOCCOCCOCCOCCOCCOCCNC(=O)c2ccc(-c3ccc4c(c3)[C@H](Nc3ccc(Cl)cc3)C[C@H](C)N4C(C)=O)cc2)cc1 (stereo partly shown) [Example 05IB6] | – | – | – | – | – | – |
| – | – | – | depletion | depletion | depletion | depletion | CCCC(NC(=O)/C(C#N)=C/c1nccs1)c1ccc(OCCOCCOCCOCCOCCOCCOCCNC(=O)c2ccc(-c3ccc4c(c3)[C@H](Nc3ccc(Cl)cc3)C[C@H](C)N4C(C)=O)cc2)cc1 (stereo partly shown) [Example 05IB9] | greater than inhibitor (I-BET726) alone and the negative control (05IB11) | depletion | completely blocked in the presence of bortezomib and degrasyn | greater than inhibitor (I-BET726) alone and the negative control (05IB11) | increase | depletion |
